Measurements: US12162879B2, “Pyridopyrimidine derivative, preparation method therefor and medical use thereof” (Jiangsu Hengrui Medicine Co., Ltd., priority 2018, dated 2024)

Key:
CYP2D6 = CYP2D6 (Homo sapiens (Human), UniProt P10635); test: Inhibition of enzyme activity of CYP2D6 in human liver microsome; format: in vitro ADME; conditions: dextromethorphan probe substrate, 30 minutes, read-out: IC50 of the inhibition effect on CYP2D6 enzyme
Procedure: The effect of the compounds of the present invention on the enzyme activity of CYP2D6 in human liver microsome was determined by the following experimental method.
(§1) • 1. Phosphate buffer solution (PBS); • 2. NADPH (Sigma N-1630); • 3. Human liver microsome (Corning Gentest); • 4. ABI QTrap 4000 liquid chromatograph/mass spectrometer (AB Sciex); • 5. Inertsil C8-3 column, 4.6×50 mm, 5 μm (Dikma Technologies Inc., USA); and • 6. CYP probe substrate (20 μM dextromethorphan, SIGMA Q0750) and positive control inhibitor (quinidine, SIGMA D9684). II. Experimental Procedures
(§2) 100 mM PBS buffer was formulated, which was then used to formulate 2.5 mg/ml human microsome solution and 5 mM NADPH solution. The 5× concentration of the compound working solution was diluted with PBS in gradients (150, 50, 15, 5, 1.5, 0.15, 0.015, 0 μM). The 5× concentration of quinidine working solution was diluted with PBS in gradients (150, 50, 15, 5, 1.5, 0.15, 0.015, 0 μM). Dextromethorphan working solution was diluted with PBS to a concentration of 20 μM.
(§3) 20 μl of 2.5 mg/ml microsome solution, 20 μl of 20 μM dextromethorphan working solution, 20 μl of MgCl2 solution and 20 μl of the compound working solution (150, 50, 15, 5, 1.5, 0.15, 0.015, 0 μM, different reaction systems for each concentration) were mixed well. For the positive control group, the compound was replaced with the same concentration of quinidine. The mixture together with 5 mM NADPH solution was pre-incubated at 37° C. for 5 minutes. After 5 minutes, 20 μl of NADPH was added to each well, the reaction was initiated, and the plate was incubated for 30 minutes. All the incubated samples were present in duplicate. After 30 minutes, 250 μl of acetonitrile containing internal standard (100 ng/ml camptothecin) was added to all samples, mixed well, shaken at 800 rpm for 10 minutes, and then centrifuged at 3700 rpm for 10 minutes. 80 μl of the supernatant was taken and analyzed by LC-MS/MS.
The data was calculated by Graphpad Prism to obtain the IC50 values of the inhibition effect of the present compounds on CYP2D6 enzyme, which are shown in Table 3.

[1] = biological target: CYP3A4 (testosterone metabolite site) (Homo sapiens (Human), UniProt P08684); test: Inhibition of enzyme activity of testosterone metabolite site of CYP3A4 in human liver microsomes; format: in vitro ADME; conditions: human liver microsome, testosterone probe substrate, 30 minutes
Procedure: The effect of the compounds of the present invention on the enzyme activity of testosterone metabolite site of CYP3A4 in human liver microsomes was determined by the following experimental method.
as §1, with “(testosterone/100 μM,” for “(20 μM dextromethorphan,”, “[…])” for “Q0750)”, “(ketoconazole, Dr. Ehrenstorfer GmbH, C17322500).” for “(quinidine, SIGMA D9684).”
as §2, with “ketoconazole” for “quinidine”, “50” for “20”
as §3, with “of 50” for “of 20”, “μM testosterone” for “μM dextromethorphan”, “of ketoconazole.” for “of quinidine.”
The data was calculated by Graphpad Prism to obtain the IC50 values of the compounds on the testosterone metabolite site of CYP3A4, which are shown in Table 4.

Chain of CYP3A4 (testosterone metabolite site) (P08684 whole entry): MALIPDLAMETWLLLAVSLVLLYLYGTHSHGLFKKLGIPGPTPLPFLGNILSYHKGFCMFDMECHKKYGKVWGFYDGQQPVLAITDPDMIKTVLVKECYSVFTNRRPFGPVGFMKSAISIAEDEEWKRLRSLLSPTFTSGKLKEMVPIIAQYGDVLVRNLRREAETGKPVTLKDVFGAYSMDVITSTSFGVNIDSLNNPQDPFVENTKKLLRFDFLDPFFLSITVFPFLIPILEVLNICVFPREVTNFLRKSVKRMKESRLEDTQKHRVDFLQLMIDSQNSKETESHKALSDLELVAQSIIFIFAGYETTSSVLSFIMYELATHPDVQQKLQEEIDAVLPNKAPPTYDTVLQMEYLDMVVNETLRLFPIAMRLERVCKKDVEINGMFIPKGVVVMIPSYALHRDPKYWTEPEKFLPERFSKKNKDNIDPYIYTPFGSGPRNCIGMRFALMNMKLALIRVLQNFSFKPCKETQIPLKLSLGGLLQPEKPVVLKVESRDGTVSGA
Chain of CYP2D6 (P10635 whole entry): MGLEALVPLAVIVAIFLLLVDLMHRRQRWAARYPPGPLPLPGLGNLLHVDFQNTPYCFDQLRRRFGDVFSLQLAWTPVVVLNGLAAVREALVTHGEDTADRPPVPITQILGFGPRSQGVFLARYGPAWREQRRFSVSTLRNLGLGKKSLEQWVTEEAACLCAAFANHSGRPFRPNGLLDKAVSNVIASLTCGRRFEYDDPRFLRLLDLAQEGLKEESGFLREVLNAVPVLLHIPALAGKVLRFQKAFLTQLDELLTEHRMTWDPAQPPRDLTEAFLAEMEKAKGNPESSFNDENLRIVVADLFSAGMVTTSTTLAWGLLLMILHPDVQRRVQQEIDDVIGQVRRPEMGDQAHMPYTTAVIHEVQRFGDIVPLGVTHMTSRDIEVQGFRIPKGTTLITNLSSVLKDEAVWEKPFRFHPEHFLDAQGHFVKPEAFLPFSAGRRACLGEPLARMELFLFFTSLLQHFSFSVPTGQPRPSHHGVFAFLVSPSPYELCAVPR

With `CCCC[C@](C)(CO)Nc1nc(N)nc2cc(-c3ccc(CN4CCCC4)nc3)cnc12` [Example 2, (R)-2-((2-Amino-7-(6-(pyrrolidin-1-ylmethyl)pyridin-3-yl)pyrido[3,2-d]pyrimidin-4-yl)amino)-2-methylhexan-1-ol] the IC50 (CYP2D6) was over 30 µM.

With `CCCC[C@](C)(CO)Nc1nc(N)nc2cc(-c3ccc(C4CCN(C)CC4)nc3)cnc12` [Example 4, (R)-2-((2-Amino-7-(6-(1-methylpiperidin-4-yl)pyridin-3-yl)pyrido[3,2-d]pyrimidin-4-yl)amino)-2-methylhexan-1-ol] the IC50 [1] was 16 µM and the IC50 (CYP2D6) was over 30 µM.

`CCCCC(C)(CO)Nc1nc(N)nc2cc(-c3ccc(CN4CCN(C)CC4)nc3)cnc12` (stereo not drawn) [Example 5, 2-((2-Amino-7-(6-((4-methylpiperazin-1-yl)methyl)pyridin-3-yl)pyrido[3,2-d]pyrimidin-4-yl)amino)-2-methylhexan-1-ol] gave an IC50 [1] of 8.3 µM and an IC50 (CYP2D6) of over 30 µM.

`CCCC[C@](C)(CO)Nc1nc(N)nc2cc(-c3ccc(CN4CCN(C)CC4)nc3)cnc12` [Example 6, (R)-2-((2-Amino-7-(6-((4-methylpiperazin-1-yl)methyl)pyridin-3-yl)pyrido[3,2-d]pyrimidin-4-yl)amino)-2-methylhexan-1-ol] showed an IC50 [1] of over 30 µM and an IC50 (CYP2D6) of over 30 µM.

For `CCCC[C@](C)(CO)Nc1nc(N)nc2cc(-c3cnc(C4CCN(C)CC4)nc3)cnc12` [Example 8, (R)-2-((2-Amino-7-(2-(1-methylpiperidin-4-yl)pyrimidin-5-yl)pyrido[3,2-d]pyrimidin-4-yl)amino)-2-methylhexan-1-ol], the IC50 [1] was over 30 µM and the IC50 (CYP2D6) was over 30 µM.
